Assay results reported in patent US20060106099A1, “Novel inhibitors of ubiquitin isopeptidases” (priority 2002, published 2006).
Read-outs that look alike come from different tables or passages of the source.

Legend:
ubiquitin isopeptidases [1] = assay: Ubiquitin isopeptidase activity, Ub-PEST substrate, lysates of treated RKO and HCT 116 cells; type: cell-based, human; settings: cells treated 6, 20 or 60 μM, 12 h
Method in brief: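 RKO and HCT 116 cells (6×10^5) were treated with 0–60 μM compound for 12 h at 37 °C, then lysed in HEPES/EDTA/CHAPS/5 mM ATP, pH 7.5. Lysates at 0.3 mg/mL protein were incubated with 50 μg/mL Ub-PEST for 45 min at 25 °C. Released 8.5 kDa ubiquitin was quantified by anti-ubiquitin western blot densitometry relative to vehicle (100%).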

ubiquitin isopeptidases [2] = assay: Ubiquitin isopeptidase activity, z-LRGG-AMC substrate, lysates of treated RKO and HCT 116 cells; type: cell-based, human; settings: cells treated 6, 20 or 60 μM, 12 h
Method in brief: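 RKO and HCT 116 cells were treated 12 h at 37° C with 6, 20 or 60 μM compound. Lysates at 0.5 mg/mL were pre-incubated with 30 μM MG115 (30 min, 4° C) to block proteasome, then given z-LRGG-AMC for 3 h at 37° C. Cleaved AMC was read fluorometrically.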

[3] = tested on: polyubiquitin conjugates in RKO-E6 cells; assay: Accumulation of polyubiquitin in RKO-E6 cells (immunoblot); type: cell-based, human; settings: EC80 or 60 μM, 6-24 h
Method in brief: (§1)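 RKO-E6 cells exposed at 37° C for 6, 12 or 24 h to compound concentrations giving 80% cell death at 48 h; for p53, RKO and RKO-E6 cells treated 6 h. Lysates (12.5 μg protein) immunoblotted for ubiquitin or p53 with ECL detection; p53 quantified by densitometry as RKO-E6/RKO ratio.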

p53 = p53 accumulation, ratio RKO-E6 cells/RKO cells (immunoblot, densitometry); type: cell-based, human; settings: 6 h; etoposide 50 μM, MG115, NSC-302979, DBA 20 μM, others 60 μM
Method in brief: as §1

RKO cells [4] = tested on: RKO cells
Procedure: (§2) Cell viability was measured with MTT reagent as described in materials and methods.
(§3) Cell viability was detected by the MTT assay. Briefly, 1×10^5 cells were incubated per well of a sterile, 96-well assay plate with 0-60 μM of test compounds for 48 hours. MTT reagent was added to each well, final concentration of 0.5 mg/mL, and incubated for an additional 3 hours. The media was aspirated and remaining MTT reagent from each well and added 100 μL of HCl:isopropanol (1:24). The absorbance of each sample was measured at 405 nm.

RKO-E6 cells [5] = tested on: RKO-E6 cells
RKO cells [6] = assay: MTT cell viability assay, RKO cells; settings: for cell death in RKO compared with RKO-E6 cells: 48 h, MTT, isogenic pair
Procedure: as §2, §3

RKO-E6 cells [7] = assay: MTT cell viability assay, RKO-E6 cells; settings: cell viability assay at 48 h, RKO-E6 cells
HCT 116 +/+ cells [8] = assay: MTT cell viability assay, HCT 116 p53 +/+ cells; settings: 48 h, MTT; for cell death in HCT 116 +/+ compared with HCT 116 −/− cells: isogenic pair
HCT 116 +/+ cells [9] = tested on: HCT 116 +/+ cells
[10] = cited from earlier work
[11] = in vivo; cited from earlier work

| SMILES | inhibition of isopeptidase cleavage of Ub-PEST (ubiquitin isopeptidases [1]) | inhibition of z-LRGG-AMC hydrolysis by ubiquitin isopeptidases (ubiquitin isopeptidases [2]) | cellular accumulation of polyubiquitin conjugates [3] | ratio of p53 protein [RKO-E6 cells/RKO cells] (p53) | EC50 (RKO cells [4]) | EC50 (RKO-E6 cells [5]) | cell death in RKO compared with RKO-E6 cells (RKO cells [6]) | EC80, concentration that gave 80% cell death (RKO-E6 cells [7]) | cell death in HCT 116 +/+ compared with HCT 116 −/− cells (HCT 116 +/+ cells [8]) | EC50 (HCT 116 +/+ cells [8]; read-out: Cytotoxic Potency (EC50) HCT +/+) | EC50 (HCT 116 +/+ cells [9]) | t1/2 of metabolism to an inactive compound in serum [10] | cross-resistance with cisplatin and adriamycin [11] | EC50 (RKO cells [6]; read-out: EC50 in RKO cell lines, prostaglandins for comparison, comparison values in the text) |
| --- | --- | --- | --- | --- | --- | --- | --- | --- | --- | --- | --- | --- | --- | --- |
| C=C1C(=O)C2=CC1CCC(=O)C1(C)CCC(OC(C)=O)C(C)(C)C1CC2O (stereo not shown) [NSC-302979, shikoccin] | inhibited isopeptidase activity in a concentration dependent manner | inhibited ubiquitin isopeptidase activity | protein species with polyubiquitin conjugation accumulated in cells | approached unity | 1.8 ± 0.1 µM | 1.4 ± 0.1 µM | caused cell death with equal potency and efficacy | 3.5 µM | caused cell death with equal potency | 2.7 ± 0.2 µM |  |  |  |  |
| CCCCC[C@H](O)C/C=C1/C(=O)C=C[C@@H]1C/C=C\CCCC(=O)O [Δ12-PGJ2, Δ12-prostaglandin J2] | inhibited isopeptidase activity in a concentration dependent manner | inhibited ubiquitin isopeptidase activity | protein species with polyubiquitin conjugation accumulated in cells | approached unity |  | 9.2 ± 1 µM | caused cell death with equal potency and efficacy | 13.2 µM | caused cell death with equal potency |  | 3.6 ± 0.3 µM | < 5 min | little cross-resistance with cisplatin and adriamycin | 9 µM |
